Laboratory results: PMC8934631, “Transcriptomic and genomic studies classify NKL54 as a histone deacetylase inhibitor with indirect influence on MEF2-dependent transcription” (Nucleic Acids Research, 2022)

Key:
[1] = biological target: T1, HDAC2 (Homo sapiens, UniProt Q92769); experiment: fluorogenic deacetylase assay, trypsin-coupled AMC release; type: biochemical
T1 construct: purchased from BPS Bioscience

[2] = biological target: T2, HDAC3 (Homo sapiens, UniProt O15379); experiment: as above; type: biochemical
T2 construct: purchased from BPS Bioscience; with Nuclear receptor corepressor 2

[3] = biological target: T3, HDAC1 (Homo sapiens, UniProt Q13547); experiment: as above; type: biochemical
T3 construct: purchased from BPS Bioscience

[4] = biological target: T4, HDAC8 (Homo sapiens, UniProt Q9BY41); experiment: biochemical; parameters: in vitro inhibition of purified HDAC isozymes, dose response
T4 sequence (Q9BY41 1-377): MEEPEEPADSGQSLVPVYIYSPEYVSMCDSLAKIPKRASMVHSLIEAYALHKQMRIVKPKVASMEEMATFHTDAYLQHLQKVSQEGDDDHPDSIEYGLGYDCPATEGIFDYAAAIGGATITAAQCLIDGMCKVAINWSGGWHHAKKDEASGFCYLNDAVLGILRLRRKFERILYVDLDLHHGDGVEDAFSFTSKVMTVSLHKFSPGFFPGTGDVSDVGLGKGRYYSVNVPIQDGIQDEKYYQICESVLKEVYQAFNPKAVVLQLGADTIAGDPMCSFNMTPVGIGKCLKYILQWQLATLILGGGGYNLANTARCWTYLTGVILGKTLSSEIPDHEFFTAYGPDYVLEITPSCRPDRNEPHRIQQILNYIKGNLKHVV
Description: (§1) To confirm the ability of NKL54, MC2984 and MC2985 to act as epigenetic drugs, we examined the levels of histone H3 lysine 9 acetylation (H3K9ac) by immunoblot. SAHA triggered an increase in H3K9 acetylation within 15 min of treatment (Figure 1G). […] The increase in H3K9ac in response to MC2985 treatment was very small, almost undetectable. […] Overall, the modulation of H3K9ac and of H3K27ac levels in response to the different compounds confirms the inhibitory potency observed with the KDAC assay in vivo. Finally, we compared the in vitro inhibitory activity of SAHA and of PAOA derivatives against different purified HDACs (NKL54 was chosen as an example). The inhibitory activity of NKL54 was specific to HDAC1/2/3 (Figure 1H). […] The Tanimoto coefficient is reported for all the compounds versus the reference BML-210. *Energy calculated on the re-docked ligand extracted from the 3MU6 complex available from PDB. **Tanimoto similarity index calculated with radius 2 circular Morgan fingerprints ([73]) in a python script ([74]) using the RDKit library ([75]). […] Cell death was scored after 48 h from treatments. […] Cell death was scored after 48 h from treatments. Data are from 3 independent experiments, + S.D. (F) Lys-deacetylase activity as measured from SK-UT-1 cells treated with increasing concentrations of the indicated compounds [1, 5, 10 μM]. […]

[5] = biological target: T5, HDAC6 (Homo sapiens, UniProt Q9UBN7); experiment: biochemical; parameters: in vitro inhibition of purified HDAC isozymes, dose response
T5 sequence (Q9UBN7 1-1215): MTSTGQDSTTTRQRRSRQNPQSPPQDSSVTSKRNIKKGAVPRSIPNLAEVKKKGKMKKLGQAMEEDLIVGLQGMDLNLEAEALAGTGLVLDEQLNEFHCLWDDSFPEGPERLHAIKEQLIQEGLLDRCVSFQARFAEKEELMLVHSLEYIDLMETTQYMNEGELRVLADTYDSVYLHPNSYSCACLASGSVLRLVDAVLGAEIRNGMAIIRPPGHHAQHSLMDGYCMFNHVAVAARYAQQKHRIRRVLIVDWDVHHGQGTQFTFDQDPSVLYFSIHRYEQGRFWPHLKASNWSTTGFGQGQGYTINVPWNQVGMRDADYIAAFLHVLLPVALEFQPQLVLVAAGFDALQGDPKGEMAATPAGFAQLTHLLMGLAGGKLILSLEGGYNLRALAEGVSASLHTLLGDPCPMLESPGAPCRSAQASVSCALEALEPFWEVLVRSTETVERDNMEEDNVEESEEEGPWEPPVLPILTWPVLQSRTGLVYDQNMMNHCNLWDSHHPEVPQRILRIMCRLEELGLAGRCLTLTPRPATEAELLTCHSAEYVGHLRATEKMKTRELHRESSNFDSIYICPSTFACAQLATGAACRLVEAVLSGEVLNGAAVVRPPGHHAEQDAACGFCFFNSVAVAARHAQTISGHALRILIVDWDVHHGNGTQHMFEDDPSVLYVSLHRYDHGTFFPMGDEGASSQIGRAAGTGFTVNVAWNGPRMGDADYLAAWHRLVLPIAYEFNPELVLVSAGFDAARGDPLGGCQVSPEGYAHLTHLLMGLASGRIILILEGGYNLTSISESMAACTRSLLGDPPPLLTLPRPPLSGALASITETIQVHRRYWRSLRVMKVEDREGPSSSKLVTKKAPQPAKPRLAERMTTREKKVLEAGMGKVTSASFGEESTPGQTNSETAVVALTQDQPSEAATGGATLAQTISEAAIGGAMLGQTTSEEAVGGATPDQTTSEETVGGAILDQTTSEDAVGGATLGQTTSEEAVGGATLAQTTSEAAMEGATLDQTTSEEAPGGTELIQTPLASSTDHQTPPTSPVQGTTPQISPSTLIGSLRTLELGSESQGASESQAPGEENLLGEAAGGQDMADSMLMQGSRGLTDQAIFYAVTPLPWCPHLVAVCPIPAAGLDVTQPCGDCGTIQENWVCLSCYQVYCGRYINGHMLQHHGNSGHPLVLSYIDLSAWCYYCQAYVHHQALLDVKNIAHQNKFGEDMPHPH
Description: as §1

[6] = biological target: HDAC4 (Homo sapiens, UniProt P56524); experiment: fluorogenic deacetylase assay, trypsin-coupled AMC release; type: biochemical
Sequence of HDAC4 (P56524 648-1057 limits assumed): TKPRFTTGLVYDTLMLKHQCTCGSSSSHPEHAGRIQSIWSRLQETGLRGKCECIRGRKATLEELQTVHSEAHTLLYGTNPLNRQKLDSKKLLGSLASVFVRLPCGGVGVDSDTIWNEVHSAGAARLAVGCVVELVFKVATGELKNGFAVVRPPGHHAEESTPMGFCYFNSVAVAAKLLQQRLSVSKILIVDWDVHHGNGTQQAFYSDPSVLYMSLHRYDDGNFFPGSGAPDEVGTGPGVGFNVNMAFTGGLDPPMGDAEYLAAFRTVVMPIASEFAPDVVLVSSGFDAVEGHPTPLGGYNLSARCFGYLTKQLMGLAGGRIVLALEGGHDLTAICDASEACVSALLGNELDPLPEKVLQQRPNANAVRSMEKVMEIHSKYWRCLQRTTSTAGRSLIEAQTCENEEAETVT

T3 sequence (Q13547 whole entry): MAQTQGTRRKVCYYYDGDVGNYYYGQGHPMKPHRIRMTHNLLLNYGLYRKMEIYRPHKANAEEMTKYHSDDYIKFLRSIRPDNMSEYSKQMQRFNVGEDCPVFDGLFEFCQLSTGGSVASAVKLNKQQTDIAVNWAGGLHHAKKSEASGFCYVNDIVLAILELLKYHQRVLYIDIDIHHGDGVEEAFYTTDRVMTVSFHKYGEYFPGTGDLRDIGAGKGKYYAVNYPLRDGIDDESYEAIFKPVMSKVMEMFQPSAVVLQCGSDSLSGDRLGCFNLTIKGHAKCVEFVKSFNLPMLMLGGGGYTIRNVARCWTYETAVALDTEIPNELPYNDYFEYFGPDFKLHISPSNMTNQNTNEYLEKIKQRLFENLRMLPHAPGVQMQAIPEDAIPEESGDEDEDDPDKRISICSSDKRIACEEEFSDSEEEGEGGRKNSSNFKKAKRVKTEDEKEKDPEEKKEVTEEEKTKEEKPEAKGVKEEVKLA
T2 sequence (O15379 whole entry): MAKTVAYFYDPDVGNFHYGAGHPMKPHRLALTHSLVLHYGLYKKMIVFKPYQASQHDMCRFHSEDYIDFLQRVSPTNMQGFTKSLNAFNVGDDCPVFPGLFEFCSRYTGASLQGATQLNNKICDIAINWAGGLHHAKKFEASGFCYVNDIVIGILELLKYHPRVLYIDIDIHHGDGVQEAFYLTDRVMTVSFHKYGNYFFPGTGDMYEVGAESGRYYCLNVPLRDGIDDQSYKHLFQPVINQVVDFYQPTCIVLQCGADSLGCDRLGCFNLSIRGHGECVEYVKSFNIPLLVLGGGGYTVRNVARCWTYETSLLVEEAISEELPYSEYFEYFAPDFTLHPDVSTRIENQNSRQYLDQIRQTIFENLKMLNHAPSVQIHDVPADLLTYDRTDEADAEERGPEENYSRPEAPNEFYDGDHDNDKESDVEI
T1 sequence (Q92769 whole entry): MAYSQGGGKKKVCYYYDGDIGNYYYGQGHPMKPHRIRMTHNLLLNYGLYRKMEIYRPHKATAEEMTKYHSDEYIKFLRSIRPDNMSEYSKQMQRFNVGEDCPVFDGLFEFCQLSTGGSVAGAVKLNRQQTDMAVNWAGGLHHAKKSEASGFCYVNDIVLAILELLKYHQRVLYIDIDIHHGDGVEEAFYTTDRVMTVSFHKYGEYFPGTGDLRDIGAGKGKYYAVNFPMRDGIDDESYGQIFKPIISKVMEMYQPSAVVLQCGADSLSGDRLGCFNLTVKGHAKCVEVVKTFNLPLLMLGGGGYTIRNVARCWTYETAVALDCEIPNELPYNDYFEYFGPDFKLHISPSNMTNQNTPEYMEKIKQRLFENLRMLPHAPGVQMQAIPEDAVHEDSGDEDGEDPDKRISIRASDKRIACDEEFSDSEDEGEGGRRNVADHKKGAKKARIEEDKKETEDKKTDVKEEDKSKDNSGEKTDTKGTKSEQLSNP

SMILES: Nc1ccccc1NC(=O)CCCCCC(=O)Nc1cccc(C(F)(F)F)c1 [NKL54, N-(2-aminophenyl)-N'-[3-(trifluoromethyl)phenyl]heptanediamide]
- IC50 [1]: 176 ± 5 nM
- IC50 [2]: 47 ± 2 nM
- IC50 [3]: 84 ± 4 nM
- IC50 [4]: > 50000 nM
- IC50 [5]: > 50000 nM
- IC50 [6]: 35000 nM
